Assay results as given in US20230030989A1, “JUST SUNSCREEN” (Pouch Pac Innovations, LLC, priority 2019, published 2023).

Conditions: in vivo
Source text: Subjects reported to the testing facility, at which time inclusion/exclusion criteria was reviewed and Informed Consent obtained. Upon verification of eligibility to enroll, the test articles were applied to the upper arm of each subject. The test articles were applied to the Webril□ disks according to a dose regime (see Section 5.1). The skin was marked with dots of crystal violet applied on either side of the top disk and below the bottom disk of the strip to enable exact location of subsequent patches. Each subject was asked to avoid the dye marks during washing and to keep the patches dry.
Subjects received patches containing the test article and two standard controls which were applied as 0.2 ml/0.2 g samples in one of five randomly assigned orders on the upper arm. The sample order for each subject was documented and maintained throughout the study in the form of a color-coded identification card. Subjects were instructed to keep the patches dry and in place for 23 hours then to remove and discard them and to return to the test center one hour later. Patches were applied on Days 1, 2, 3 and 4. Patches were applied to the same site on each day unless a reaction stronger than a mild erythema (i.e. greater than a score of 1.5 (Appendix 5)) was present in which case the patch strip was cut and the relevant patch (es) not reapplied. Assessment of patch sites was immediately before application of the next patch on Days 2, 3, 4 and on Day 5. After removal of the patches the test sites were wiped with a damp tissue to remove any remaining product.

CCCCCCCCCCCCOS(=O)(=O)[O-].[Na+] [0.3% W/V SLS]
patch site score Day 2, MEAN: 0.08
patch site score Day 3, MEAN: 0.37
patch site score Day 4, MEAN: 0.63
patch site score Day 5, MEAN: 0.82
